Assays:
SARS-CoV-2 = assay: Cytopathic effect (CPE) suppression effect confirmation test using HEK293T/ACE2-TMPRSS2 cells; type: cell-based; conditions: Severe acute respiratory syndrome coronavirus 2, HEK-293T; 50% SARS-CoV-2 infected cell death inhibitory concentration; HEK293T/ACE2-TMPRSS2 cells; read-out: EC50
[1] = target: Recombinant SARS-CoV-2 3CL Protease (Severe acute respiratory syndrome coronavirus 2 (2019-nCoV) (SARS-CoV-2), UniProt P0DTD1); assay: biochemical; type: biochemical; conditions: 50% SARS-CoV-2 3CL protease inhibitory concentration; read-out: IC50

| SMILES | EC50 (SARS-CoV-2) [µM] | IC50 [1] [µM] |
| --- | --- | --- |
| CC(C)=Cc1c(-c2ccc(F)c(Cl)c2)c(=O)n(-c2cncc(Cl)c2)c(=O)n1CC#N [Compound I-301] | < 0.1 | < 0.01 |
| Cn1ccc(-c2c(-c3ccc(F)c(Cl)c3)c(=O)n(-c3cncc(Cl)c3)c(=O)n2CC#N)n1 [Compound I-302] | < 0.1 | < 0.01 |
| Cn1ccc(-c2c(-c3ccc(F)c(Cl)c3)c(=O)n(-c3cncc(Cl)c3)c(=O)n2CC#N)cc1=O [Compound I-303] | < 0.1 | < 0.01 |
| N#CCn1c(N2CC3(C2)CC(F)(F)C3)c(-c2ccc(F)c(Cl)c2)c(=O)n(-c2onc3cc(F)ccc23)c1=O [Compound I-304] | < 0.1 | < 0.01 |
| N#CCn1c(N2CCC(F)(C#N)CC2)c(-c2ccc(F)c(Cl)c2)c(=O)n(-c2cncc(Cl)c2)c1=O [Compound I-305] | < 0.1 | < 0.01 |
| CC(C)(O)CCc1c(-c2ccc(F)c(Cl)c2)c(=O)n(-c2cncc(Cl)c2)c(=O)n1CC#N [Compound I-306] | < 0.1 | < 0.01 |
| CC(C)(F)Cc1c(-c2ccc(F)c(Cl)c2)c(=O)n(-c2cncc(Cl)c2)c(=O)n1CC#N [Compound I-307] | < 0.1 | < 0.01 |
| CC(C)(O)Cc1c(-c2ccc(F)c(Cl)c2)c(=O)n(-c2cncc(Cl)c2)c(=O)n1CC#N [Compound I-308] | < 0.1 | < 0.01 |
| N#CCn1c(N2CC(F)C2)c(-c2ccc(F)c(Cl)c2)c(=O)n(-c2cncc(Cl)c2)c1=O [Compound I-309] | < 0.1 | < 0.01 |
| N#CCn1c(N2CC(C(F)(F)F)C2)c(-c2ccc(F)c(Cl)c2)c(=O)n(-c2cncc(C#N)c2)c1=O [Compound I-310] | < 0.1 | < 0.01 |
| N#CCn1c(N2CC(OC(F)(F)F)C2)c(-c2ccc(F)c(Cl)c2)c(=O)n(-c2cncc(C#N)c2)c1=O [Compound I-311] | < 0.1 | < 0.01 |
| N#CCn1c(N2CC(C(F)F)C2)c(-c2ccc(F)c(Cl)c2)c(=O)n(-c2cncc(C#N)c2)c1=O [Compound I-312] | < 0.1 | < 0.01 |
| CC(C)(O)[C@@H]1CCN(c2c(-c3ccc(F)c(Cl)c3)c(=O)n(-c3cncc(C#N)c3)c(=O)n2CC#N)C1 [Compound I-313] | < 0.1 | < 0.01 |
| Cc1cc(-c2c(-c3ccc(F)c(Cl)c3)c(=O)n(-c3cncc(Cl)c3)c(=O)n2CC#N)on1 [Compound I-314] | < 0.1 | < 0.01 |
| N#CCn1c(N2CC3(C2)CC(F)(F)C3)c(-c2ccc(F)c(F)c2)c(=O)n(-c2cncc(Cl)c2)c1=O [Compound I-315] | < 0.1 | < 0.01 |
| N#CCn1c(N2CC(C(F)(F)F)C2)c(-c2ccc(F)c(F)c2)c(=O)n(-c2cncc(Cl)c2)c1=O [Compound I-316] | < 0.1 | < 0.01 |
| N#CCn1c(N2CC(O)(C(F)(F)F)C2)c(-c2ccc(F)c(F)c2)c(=O)n(-c2cncc(Cl)c2)c1=O [Compound I-317] | < 0.1 | < 0.01 |
| N#CCn1c(N2CC(OC(F)(F)F)C2)c(-c2ccc(F)c(F)c2)c(=O)n(-c2cncc(Cl)c2)c1=O [Compound I-318] | < 0.1 | < 0.01 |
| N#CCn1c(N2CC(OC(F)F)C2)c(-c2ccc(F)c(F)c2)c(=O)n(-c2cncc(Cl)c2)c1=O [Compound I-319] | < 0.1 | < 0.01 |
| N#CCn1c(N2C[C@@H]3C[C@H]2CO3)c(-c2ccc(F)c(F)c2)c(=O)n(-c2cncc(Cl)c2)c1=O [Compound I-320] | < 0.1 | < 0.01 |
| N#CCn1c(N2CC(O)(c3ncccn3)C2)c(-c2ccc(F)c(F)c2)c(=O)n(-c2cncc(Cl)c2)c1=O [Compound I-321] | < 0.1 | < 0.01 |
| N#CCn1c(N2CC(O)C2)c(-c2ccc(F)c(F)c2)c(=O)n(-c2cncc(Cl)c2)c1=O [Compound I-322] | < 0.1 | < 0.01 |
| N#CCn1c(N2CC3(C2)CC(F)(F)C3)c(-c2ccc(F)c(Cl)c2)c(=O)n(-c2cnc3cc(F)c(F)cn23)c1=O [Compound I-323] | < 0.1 | < 0.01 |
| N#CCn1c(CCC(F)(F)F)c(-c2ccc(F)c(Cl)c2)c(=O)n(-c2cncc(Cl)c2)c1=O [Compound I-324] | < 0.1 | < 0.01 |
| N#CCn1c(N2CC3(C2)CC(F)(F)C3)c(-c2ccc(F)c(Cl)c2)c(=O)n(-c2cncc(OCF)c2)c1=O [Compound I-325] | < 0.1 | < 0.01 |
| N#CCn1c(N2CCC(F)(F)CC2)c(-c2cc(F)c(F)c(F)c2)c(=O)n(-c2cncc(Cl)c2)c1=O [Compound I-326] | < 0.1 | < 0.01 |
| N#CCn1c(N2CCC(F)(F)CC2)c(-c2cc(F)c(F)c(Cl)c2)c(=O)n(-c2cncc(Cl)c2)c1=O [Compound I-327] | < 0.1 | < 0.01 |
| Cc1cc(-c2c(N3CCC(F)(F)CC3)n(CC#N)c(=O)n(-c3cncc(Cl)c3)c2=O)cs1 [Compound I-328] | < 0.1 | 0.01 to 0.1 |

| SMILES | EC50 (SARS-CoV-2) [µM] | IC50 [1] [µM] |
| --- | --- | --- |
| N#CCn1c(N2CCC(F)(F)CC2)c(-c2csc3ccccc23)c(=O)n(-c2cncc(Cl)c2)c1=O [Compound I-329] | < 0.1 | < 0.01 |
| N#CCn1c(N2CCC(F)(F)CC2)c(-c2cc(Cl)cc(C#N)c2)c(=O)n(-c2cncc(Cl)c2)c1=O [Compound I-330] | < 0.1 | < 0.01 |
| N#CCn1c(N2CCC(F)(F)CC2)c(-c2cc(O)cc(Cl)c2)c(=O)n(-c2cncc(Cl)c2)c1=O [Compound I-331] | < 0.1 | < 0.01 |
| N#CCn1c(N2CC3(C2)CC(F)(F)C3)c(-c2ccc(F)c(Cl)c2)c(=O)n(-c2cncc(OC(F)F)n2)c1=O [Compound I-332] | < 0.1 | < 0.01 |
| N#CCn1c(N2CC(O)(C(F)F)C2)c(-c2cc(F)c(F)c(Cl)c2)c(=O)n(-c2cncc(Cl)c2)c1=O [Compound I-333] | < 0.1 | < 0.01 |
| N#CCn1c(N2CC(OC(F)(F)F)C2)c(-c2ccc(F)c(Cl)c2)c(=O)n(-c2cncc(C(F)(F)F)n2)c1=O [Compound I-334] | < 0.1 | < 0.01 |
| N#CCn1c(N2CC(OC(F)F)C2)c(-c2ccc(F)c(Cl)c2)c(=O)n(-c2cncc(C(F)(F)F)n2)c1=O [Compound I-335] | < 0.1 | < 0.01 |
| N#CCn1c(N2CC(O)(c3ncccn3)C2)c(-c2ccc(F)c(Cl)c2)c(=O)n(-c2cncc(C(F)F)n2)c1=O [Compound I-336] | < 0.1 | < 0.01 |
| Cc1cncc(-n2c(=O)c(-c3ccc(F)c(Cl)c3)c(N3CC(O)(c4ncccn4)C3)n(CC#N)c2=O)n1 [Compound I-337] | < 0.1 | < 0.01 |
| N#CCn1c(N2CC(F)(C3CC3)C2)c(-c2ccc(F)c(Cl)c2)c(=O)n(-c2cncc(C#N)c2)c1=O [Compound I-338] | < 0.1 | < 0.01 |
| N#CCn1c(N2CC3(C2)CC(F)(F)C3)c(-c2ccc(F)c(C(F)F)c2)c(=O)n(-c2cncc(Cl)c2)c1=O [Compound I-339] | < 0.1 | < 0.01 |
| N#CCn1c(N2CC(O)(C(F)(F)F)C2)c(-c2ccc(F)c(C(F)F)c2)c(=O)n(-c2cncc(Cl)c2)c1=O [Compound I-340] | < 0.1 | < 0.01 |
| N#CCn1c(N2CC(C(F)(F)F)C2)c(-c2ccc(F)c(C(F)F)c2)c(=O)n(-c2cncc(Cl)c2)c1=O [Compound I-341] | < 0.1 | < 0.01 |
| N#CCn1c(N2CC(OC(F)F)C2)c(-c2ccc(F)c(C(F)F)c2)c(=O)n(-c2cncc(Cl)c2)c1=O [Compound I-342] | < 0.1 | < 0.01 |
| N#CCn1c(N2C[C@@H]3C[C@H]2CO3)c(-c2ccc(F)c(C(F)F)c2)c(=O)n(-c2cncc(Cl)c2)c1=O [Compound I-343] | < 0.1 | < 0.01 |
| Cc1cc(-n2c(=O)c(-c3ccc(F)c(Cl)c3)c(N3CC4(C3)CC(F)(F)C4)n(CC#N)c2=O)cc(=O)o1 [Compound I-344] | < 0.1 | 0.01 to 0.1 |
| N#CCn1c(N2CC(O)(C(F)F)C2)c(-c2ccc(F)c(Cl)c2)c(=O)n(-c2cncc(C(F)F)n2)c1=O [Compound I-345] | < 0.1 | < 0.01 |
| N#CCn1c(N2CC(O)(c3ncccn3)C2)c(-c2ccc(F)c(Cl)c2)c(=O)n(-c2cncc(OCF)c2)c1=O [Compound I-346] | < 0.1 | < 0.01 |
| N#CCn1c(N2CC(F)(C3CC3)C2)c(-c2ccc(F)c(Cl)c2)c(=O)n(-c2cncc(OCF)c2)c1=O [Compound I-347] | < 0.1 | < 0.01 |
| N#CCn1c(C2(O)CCC2)c(-c2ccc(F)c(Cl)c2)c(=O)n(-c2cncc(Cl)c2)c1=O [Compound I-348] | < 0.1 | 0.01 to 0.1 |
| N#CCn1c(C2=CCC2)c(-c2ccc(F)c(Cl)c2)c(=O)n(-c2cncc(Cl)c2)c1=O [Compound I-349] | < 0.1 | 0.01 to 0.1 |
| N#CCn1c(CCC(F)F)c(-c2ccc(F)c(Cl)c2)c(=O)n(-c2cncc(Cl)c2)c1=O [Compound I-350] | < 0.1 | < 0.01 |
| N#CCn1c(N2CC(OC(F)(F)F)C2)c(-c2ccc(F)c(Cl)c2)c(=O)n(-c2cnc3cc(F)ccn23)c1=O [Compound I-351] | < 0.1 | < 0.01 |
| N#CCn1c(N2CC(C(F)(F)F)C2)c(-c2ccc(F)c(Cl)c2)c(=O)n(-c2cncc(OCF)c2)c1=O [Compound I-352] | < 0.1 | < 0.01 |
| N#CCn1c(N2CC3(C2)CC(F)(F)C3)c(-c2ccc(F)c(Cl)c2)c(=O)n(-c2cncc(OCF)n2)c1=O [Compound I-353] | < 0.1 | < 0.01 |
| CC1(O)CN(c2c(-c3ccc(F)c(Cl)c3)c(=O)n(-c3cncc(OC(F)F)n3)c(=O)n2CC#N)C1 [Compound I-354] | < 0.1 | < 0.01 |
| CC1(O)CN(c2c(-c3ccc(F)c(Cl)c3)c(=O)n(-c3cncc(OCF)n3)c(=O)n2CC#N)C1 [Compound I-355] | < 0.1 | < 0.01 |
